The conditions of assay [1]: background; compared with a therapy session of up to several hours; cited from earlier work.
For assay [2], the target named is T1, 5-HT2A receptors (Mus musculus, UniProt P35363). As to the kind of experiment: Psilocybin-induced head twitch response in mice, 5-HT2A antagonist given i.v. after psilocybin. It is filed as in vivo, C57BL/6J mice. The arrangement: widely used to explore the effect of treatments on 5-HT2A receptors in vivo; from tissue; host or cells: whole living male C57BL/6J mice (behavioural read-out). The conditions noted are these: for head-twitch response (cumulative head-twitches): psilocybin 2 mg/kg i.p., monitored until 40 min after agonist dosing; for Result (Psilocybin Combinations tested, summary): summary of Examples 1-17.
T1 sequence (P35363 whole entry): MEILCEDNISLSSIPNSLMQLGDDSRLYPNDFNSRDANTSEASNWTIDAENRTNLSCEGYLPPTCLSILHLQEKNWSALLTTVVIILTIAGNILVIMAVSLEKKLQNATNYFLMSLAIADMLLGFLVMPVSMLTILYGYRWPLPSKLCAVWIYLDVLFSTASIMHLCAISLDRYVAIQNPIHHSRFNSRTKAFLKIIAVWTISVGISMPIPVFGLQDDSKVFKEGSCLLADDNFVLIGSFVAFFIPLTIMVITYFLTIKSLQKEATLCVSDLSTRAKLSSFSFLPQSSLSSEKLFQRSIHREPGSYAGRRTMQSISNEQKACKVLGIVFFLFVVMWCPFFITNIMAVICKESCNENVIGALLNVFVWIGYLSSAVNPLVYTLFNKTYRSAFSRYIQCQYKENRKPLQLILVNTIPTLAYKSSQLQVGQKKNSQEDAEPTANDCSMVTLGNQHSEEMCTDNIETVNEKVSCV
Source text: (§1) See, Keller and Umbreit, Science, 1956, 124: 723). […] The head-shake response is elicited by a wide variety of known hallucinogens such as LSD, psilocybin, psilocin, N,N-dimethyltryptamine (DMT), and mescaline as well as serotonin-releasing agents and direct 5-HT2 agonists. See, Canal and Morgan, Drug Test Anal., 2012, 4, 556-576 2012. 2,5-dimethoxy-4-iodoamphetamine (DOI) has also been reported to elicit head shakes in rats (see Amt and Hyttel Eur. J. Pharmacol., 1989, 161:45; also see Kennett et al., Br. J. Pharmacol., 1994, 111: 797-802) and head-twitches in mice (see Darmani et al., Pharmacol. Biochem. Behav., 1990, 36: […]), both of which were blocked by administration of the fairly selective 5-HT2A antagonist ketanserin. Later studies have confirmed 5-HT2A receptors are the primary, direct mediators of the response and that the headshake response in rats is essentially the same as head-twitches in mice, at least in regards to similarity in appearance and 5-HT2A receptor dependence. See, Canal and Morgan, Drug Test Anal., 2012, 4, 556-576 2012.
Male C57BL/6J mice (approximately 25 g) was group housed in stock room B20D of the Saretius animal at the University of Reading. Animals was maintained under a 12 h light/dark cycle, at 23° C. with humidity controlled
(§2) At T=−60 min, C57BL/6J mice were individually housed into transparent observation cages with bedding removed and left to habituate. At T=−3 min, mice were placed into heated cages at 40° C. At T=0 h, groups of 3 mice were dosed intraperitoneally with psilocybin (2 mg/kg). Following dosing, mice were replaced into the heated cages and head-twitch responses continuously scored for 7 min. After 7 min, mice were intravenously dosed via the lateral tail vein with either vehicle 1 (saline) or volinanserin 1 mg/kg in 5 mL/kg dosing volumes. Mice were replaced into the observation cages and head twitch behavior were monitored until 40 min after agonist dosing. Cumulative head-twitches were measured every 2 minutes until 40 minutes after agonist dosing.
as §2, with “min. […]” for “min. After 7 min, mice were intravenously dosed via the lateral tail vein with either vehicle 1 (saline) or volinanserin 1 mg/kg in 5 mL/kg dosing volumes.”, “behavior was” for “behavior were”, “Cumulative head-twitch behavior was” for “Cumulative head-twitches were”
as §2, with “min. […]” for “min. After 7 min, mice were intravenously dosed via the lateral tail vein with either vehicle 1 (saline) or volinanserin 1 mg/kg in 5 mL/kg dosing volumes.”, “behavior was” for “behavior were”, “Cumulative head-twitch behavior was” for “Cumulative head-twitches were”
as §2, with “min. […]” for “min. After 7 min, mice were intravenously dosed via the lateral tail vein with either vehicle 1 (saline) or volinanserin 1 mg/kg in 5 mL/kg dosing volumes.”, “behavior was” for “behavior were”, “Cumulative head-twitch behavior was” for “Cumulative head-twitches were”

In assay [3] the target is T1, 5-HT2A receptors. As to the kind of experiment: LSD-induced head twitch response in mice, 5-HT2A antagonist given i.v. after LSD. The assay is classed as in vivo, C57BL/6J mice. Also noted: widely used to explore the effect of treatments on 5-HT2A receptors in vivo; from tissue; host or cells: whole living male C57BL/6J mice (behavioural read-out). Particulars: for head-twitch response (cumulative head-twitches): LSD 0.32 mg/kg i.p., monitored until 40 min after agonist dosing; for Result (LSD Combinations tested, summary): summary of Examples 1-17, antagonist administered after LSD.
Source text: as §1
Male C57BL/6J mice (approximately 25 g) was group housed in stock room B20D of the Saretius animal at the University of Reading. […]
as §2, with “At T=−2” for “At T=−3”, “with LSD (0.32” for “with psilocybin (2”, “for 8” for “for 7”, “After 8” for “After 7”, “Cumulative head-twitch behavior was” for “Cumulative head-twitches were”
At T=−60 min, C57BL/6J mice were individually housed into transparent observation cages with bedding removed and left to habituate. At T=−2 min, mice were placed into heated cages at 40° C. At T=0 h, groups of 3 mice were dosed intraperitoneally with LSD (0.32 mg/kg).

The target of assay [4] is T1, 5-HT2A receptors. Also noted: head-twitches in mice (see Darmani et al., Pharmacol. Biochem. Behav., 1990); host or cells: living mice (cited study). Particulars: mice; 2,5-dimethoxy-4-iodoamphetamine (DOI); cited from earlier work.
Assay [5] deals with T2, 5-HT2A receptors (Rattus norvegicus, UniProt P14842).
T2 construct: has also been reported to elicit head shakes in rats; host or cells: living rats (cited studies)
T2 sequence (P14842 whole entry): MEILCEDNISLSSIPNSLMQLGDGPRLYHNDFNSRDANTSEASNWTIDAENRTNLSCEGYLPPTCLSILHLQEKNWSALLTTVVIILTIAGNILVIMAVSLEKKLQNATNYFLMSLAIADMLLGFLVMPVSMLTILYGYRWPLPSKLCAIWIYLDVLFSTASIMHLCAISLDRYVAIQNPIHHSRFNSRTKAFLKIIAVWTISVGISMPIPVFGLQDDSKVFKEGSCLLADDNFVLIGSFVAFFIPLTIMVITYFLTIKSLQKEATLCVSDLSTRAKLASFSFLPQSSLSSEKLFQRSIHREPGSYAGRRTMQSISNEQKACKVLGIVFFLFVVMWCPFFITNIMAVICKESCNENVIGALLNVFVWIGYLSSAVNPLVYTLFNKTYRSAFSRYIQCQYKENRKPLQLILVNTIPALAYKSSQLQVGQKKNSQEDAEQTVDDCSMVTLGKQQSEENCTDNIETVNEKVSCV
The conditions noted are these: rats; 2,5-dimethoxy-4-iodoamphetamine (DOI); cited from earlier work.

The test system of assay [6] is psilocybin induced head twitches in mice. The conditions noted are these: psilocybin 2 mg/kg i.p.; quetiapine 1 mg/kg i.v. after T=7 minutes; cumulative head twitches until 40 minutes. How it is done:
Mice were dosed intraperitoneally with psilocybin (2 mg/kg) and head-twitch responses were continuously scored for 7 minutes. […] Cumulative head-twitch behavior was measured every 2 minutes until 40 minutes after agonist dosing.

Where [7] appears, read: antagonist 1 mg/kg i.v. after 7 min.
[8] abbreviates: antagonist 4 mg/kg i.v. after 7 min.
The mark [9] stands for this setting: antagonist administered after psilocybin.
Setting [10] is: antagonist 1 mg/kg i.v. after 8 min.

The text below walks through data of US20240000795A1, “METHODS AND COMPOSITIONS RELATING TO CONTROLLING PSYCHEDELIC EFFECTS WITH SEROTONIN RECEPTOR MODULATORS” (Terran Biosciences Inc., priority 2022, published 2024).

Structures are written as SMILES. “Also recorded” adds a separate entry of the source.

As to `CCN(CC)C(=O)[C@@H]1C=C2c3cccc4[nH]cc(c34)C[C@H]2N(C)C1` [LSD], the duration of effects in assay [1] is 12 h.

Regarding `O=c1[nH]c2ccccc2n1CCN1CCN(c2cccc(C(F)(F)F)c2)CC1` [flibanserin], the “head-twitch response (cumulative head-twitches)” value on 5-HT2A receptors [2] (setting [7]), on 5-HT2A receptors [2] (setting [8]), at 5-HT2A receptors [3] (setting [10]) and on 5-HT2A receptors [3] (antagonist 4 mg/kg i.v. after 8 min) was “partially suppressed” in each case. The “Result (Psilocybin Combinations tested, summary)” value on 5-HT2A receptors [2] (setting [9]) was “partial suppression”; at 5-HT2A receptors [2] (antagonist administered after psilocybin, listed as Flibanserin), “Partial suppression of head twitch”. The “Result (LSD Combinations tested, summary)” value is given as “partial suppression” on 5-HT2A receptors [3] and “Partial suppression of head twitch” at 5-HT2A receptors [3] (listed as Flibanserin).

In the case of `O=C(c1ccc(F)cc1)C1CCN(CCn2c(=O)[nH]c3ccccc3c2=O)CC1` [ketanserin], the DOI-elicited head-twitches result at 5-HT2A receptors [4] is reported as “blocked”. Besides, the “head-twitch response (cumulative head-twitches)” value on 5-HT2A receptors [2] (antagonist 2 mg/kg i.v. after 7 min) and on 5-HT2A receptors [3] (antagonist 2 mg/kg i.v. after 8 min) was “completely suppressed” in each case. Moreover, the DOI-elicited head shakes entry at 5-HT2A receptors [5] is given as “blocked”.

For the compound `COc1ccc(NC(=O)Nc2ccc(F)cc2F)cc1-c1c(Br)cnn1C` [nelotanserin], the “head-twitch response (cumulative head-twitches)” value is “partially suppressed” on 5-HT2A receptors [2] (setting [7]), “completely suppressed; also recorded: completed suppressed” at 5-HT2A receptors [2] (setting [8]) and “partially suppressed” on 5-HT2A receptors [3] (setting [10]). Further, the “Result (Psilocybin Combinations tested, summary)” value on 5-HT2A receptors [2] (setting [9]) is on record as “partial suppression”; on 5-HT2A receptors [2] (antagonist administered after psilocybin, listed as Nelotanserin), “Partial suppression of head twitch,”; at 5-HT2A receptors [2] (at high dose), “full suppression at high dose”. Besides, the “Result (LSD Combinations tested, summary)” value was “partial suppression” at 5-HT2A receptors [3] and “Partial suppression of head twitch” on 5-HT2A receptors [3] (listed as Nelotanserin).

In the case of `N#Cc1c[nH]c2c(C(=O)N3CCN(CCc4ccc(F)cc4)CC3)cccc12` [pruvanserin], the “head-twitch response (cumulative head-twitches)” value at 5-HT2A receptors [2] (setting [7]) and on 5-HT2A receptors [3] (setting [10]) was “completely suppressed” throughout. Further, the “Result (Psilocybin Combinations tested, summary)” value on 5-HT2A receptors [2] (setting [9]) is “full ending”; at 5-HT2A receptors [2] (antagonist administered after psilocybin, listed as Pruvanserin) it was “Full suppression of head twitch”. The “Result (LSD Combinations tested, summary)” value at 5-HT2A receptors [3] is given as “full suppression”; at 5-HT2A receptors [3] (listed as Pruvanserin), “Full suppression of head twitch”.

For `OCCOCCN1CCN(C2=Nc3ccccc3Sc3ccccc32)CC1` [quetiapine], the head-twitch response entry in assay [6] is on record as “completely suppressed”.

As to `Cc1nc2sccn2c(=O)c1CCN1CCC(=C(c2ccc(F)cc2)c2ccc(F)cc2)CC1` [ritanserin], the “head-twitch response (cumulative head-twitches)” value at 5-HT2A receptors [2] (setting [7]) is reported as “completely suppressed”; on 5-HT2A receptors [3] (setting [10]) it was “partially suppressed”. In addition, the “Result (Psilocybin Combinations tested, summary)” value was “full ending” on 5-HT2A receptors [2] (setting [9]) and “Full suppression of head twitch” at 5-HT2A receptors [2] (antagonist administered after psilocybin, listed as Ritanserin). The “Result (LSD Combinations tested, summary)” value on 5-HT2A receptors [3] is listed as “full suppression”; on 5-HT2A receptors [3] (listed as Ritanserin), “Full suppression of head twitch”.

`COc1cccc([C@H](O)C2CCN(CCc3ccc(F)cc3)CC2)c1OC` [volinanserin]: the “head-twitch response (cumulative head-twitches)” value at 5-HT2A receptors [2] (setting [7]), on 5-HT2A receptors [3] (antagonist 1 mg/kg i.v. after 5 min), on 5-HT2A receptors [3] (setting [10]) and at 5-HT2A receptors [3] (antagonist 1 mg/kg i.v. after 10 min) was “completely suppressed” throughout. For the same compound, the “Result (Psilocybin Combinations tested, summary)” value at 5-HT2A receptors [2] (setting [9]) is “full ending”; at 5-HT2A receptors [2] (antagonist administered after psilocybin, listed as Volinanserin), “Full suppression of head twitch”. Moreover, the “Result (LSD Combinations tested, summary)” value at 5-HT2A receptors [3] is given as “full suppression”.
